Laboratory results: PMC3758303 (PLoS ONE, 2013)

Legend:
[1] = WST-1 cell proliferation assay, 1B-4RL cells; type: cell-based; conditions: human
Description: (§1) The WST-1 cell proliferation assay was performed as described previously. Briefly, The cells were plated onto 96-well plates (1×10^3 cells per well) in triplicate and then treated with each reagent at several concentrations for 72 hrs. After treatment, the cells were subjected to the WST-1 cell proliferation assay (Takara Bio, Otsu, Japan) according to the manufacturer’s protocol. This assay is based on the enzymatic cleavage of the tetrazolium salt WST-1 to formazan by cellular mitochondrial dehydrogenases present in viable cells. Therefore, there are […] the value of the WST-1 assay becomes zero. The experiments were performed at least in triplicate. From the assay results, the 50% cytotoxic concentration (CC50) of each reagent was determined.

[2] = parameters: method as in Kim et al., unpublished data; conditions: ref Kim et al., unpublished data; cited from earlier work
[3] = system: authentic 9.6 kb HCV-RNA replication in HCV-O/RLGE cells; test: Quantitative RT-PCR of authentic HCV-RNA in HCV-O/RLGE cells; type: cell-based; conditions: Hepatitis C virus, 72 hrs, real-time LightCycler PCR
Description: The SI value of each reagent was determined by dividing the CC50 value by the EC50 value.
The RNAs from HCV-RNA replicating cell lines were prepared with an RNeasy extraction kit (Qiagen). The quantitative RT-PCR analysis for HCV-RNA was performed using a real-time LightCycler PCR (Roche Diagnostics, Basel, Switzerland) as described previously, [20].
(§2) The genome-length HCV-RNA used in the assay systems described above contains three non-natural elements: RL, neomycin phosphotransferase, and an internal ribosomal entry site of encephalomyocarditis virus. To exclude the possibility that the anti-HCV activity of N-89 or N-251 was due to the inhibition of these three exogenous elements, we examined the anti-HCV activities of N-89 and N-251 using the authentic 9.6 kb HCV-RNA-replicating HCV-O/RLGE cells, which were developed by the introduction of in vitro synthesized HCV-O/RLGE RNA (Fig. 2A) into OR6c cured cells.
Figure 2 Characterization of anti-HCV activities of N-89 and N-251. (A) Schematic gene organization of authentic HCV-RNA (HCV-O/RLGE). The positions of four adaptive mutations - Q1112R, P1115L, E1202G, and K1609E - are indicated by a black star. […] The relative value (%) calculated at each point, when the level in non-treated cells was assigned as 100%, is presented here. Data are expressed as the means±standard deviation of triplicate assays. […]

[4] = system: HCV-RNA replication in ORL8 cells; test: Effect of VE on anti-HCV activity, ORL8 RL assay; type: cell-based, hepatitis C virus; conditions: 72 hrs
Description: After treatment, an RL assay of harvested ORL8 cell samples was performed. (B, D, and F) The ratio of RL activity in the presence of VE to the RL activity in the absence of VE. The above ratio was calculated from the data of (A, C, and E). […] (G) Western blot analysis was performed as described in Fig. 1B.
The ORL8 cells were treated with N-89 or IFN-α, and then RL assays were performed at 2 to 72 hrs after the treatment. The relative value (%) calculated at each time point, when the luciferase activity of non-treated cells at 24 hrs was assigned as 100%, is shown. Data are expressed as the means±standard deviation of triplicate assays. […] To evaluate this possibility, we examined the effect of VE on N-89 at the EC90 level in the ORL8 assay.

[5] = molecular target: T1, renilla luciferase (RL) activity (Renilla reniformis, UniProt P27652); test: Direct effect on RL activity in cell lysate; type: biochemical
T1 construct: expressed in transfected cells; host or cells: OR6 (HuH-7-derived) and ORL8 (Li23-derived) cells harbouring genome-length HCV-RNA that encodes RL; cell lysate
Excerpt: as §2
Supplementary file pone.0072519.s002.tif: Figure S2 No inhibition of RL activity by N-89 or N-251. […] N-89 or N-251 was added to the OR6 cell lysate, and then an RL assay was performed. […] N-89 or N-251 was added to the ORL8 cell lysate, and then an RL assay was performed. (TIF) Click here for additional data file.

[6] = WST-1 cell proliferation assay, KAH5RL cells; type: cell-based; conditions: human
Description: as §1

[7] = system: HCV-RNA replication in ORL8 cells; test: Combination with IFN-α and/or RBV, ORL8 RL assay; type: cell-based, hepatitis C virus; conditions: 72 hrs; for anti-HCV effect in combination with IFN-α: IFN-α more than 4 IU/ml
Excerpt: We examined the anti-HCV activity of N-89 or N-251 in combination with IFN-α using OR6 and ORL8 assay systems. […] However, such an effect was not clear in the OR6 assay (Fig. S4A). […] Therefore, we next examined the combination effect of RBV in the same way as IFN-α using an ORL8 assay. […] Therefore, we further examined the effect of N89 or N-251 in combination with both IFN-α and RBV using an ORL8 assay.
Figure 6 Synergistic anti-HCV effects of N-89 or N-251 in combination with IFN-α and/or RBV on HCV-RNA replication in ORL8 cells. […] ORL8 cells were treated with N-89 (upper panel) or N-251 (lower panel) in combination with IFN-α (A), RBV (B), or IFN-α and RBV (C) for 72 hrs and subjected to RL assay.

[8] = WST-1 cell proliferation assay, sOR cells; type: cell-based; conditions: human
Description: as §1

[9] = reagent added along with substrate to OR6 cell lysate
[10] = reagent added along with substrate to ORL8 cell lysate

T1 sequence (P27652 whole entry): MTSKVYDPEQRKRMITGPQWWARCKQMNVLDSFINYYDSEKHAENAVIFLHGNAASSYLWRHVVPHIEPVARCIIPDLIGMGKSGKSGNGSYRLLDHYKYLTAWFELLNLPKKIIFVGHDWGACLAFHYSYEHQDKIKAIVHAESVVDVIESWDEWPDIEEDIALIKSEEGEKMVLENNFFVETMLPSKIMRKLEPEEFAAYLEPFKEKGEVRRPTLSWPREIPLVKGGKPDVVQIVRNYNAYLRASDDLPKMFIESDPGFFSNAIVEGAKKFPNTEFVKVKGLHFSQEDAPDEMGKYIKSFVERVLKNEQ

SMILES | CC50 at 72 h [1] [µM] | blood concentration [2] | EC50 [3] [µM] | VE 10μM(+) / VE 10μM(-) ratio of RL activity ([4]; reagent at expected EC90, Fig. 5D (control 2.3)) | direct effect on RL activity [5, 9] | direct effect on RL activity [5, 10] | CC50 at 72 h [6] [µM] | anti-HCV effect in combination with RBV [7] | anti-HCV effect in combination with both IFN-α and RBV [7] | anti-HCV effect in combination with IFN-α [7] | CC50 at 72 h [8] [µM] | VE 10μM(+) / VE 10μM(-) ratio of RL activity ([4]; reagent at expected EC90, Fig. 5B (control 3.0))
OCCCCCCC1COOC2(CCCCCCCCCCC2)OOC1 [N-251, 6-(1,2,6,7-tetraoxaspiro[7.11]nonadec-4-yl)hexan-1-ol] | 1.9 | approximately 1 µM | 1.6 | 13 | No suppressive effects | No suppressive effects | 2.8 | synergistic effect | synergistically enhanced | synergistic effect | 2.2 | –
C1CCCCCC2(CCCCC1)OOCCCOO2 [N-89, 1,2,6,7-Tetraoxaspiro[7.11]nonadecane] | 2.4 | approximately 1 µM | 2 | – | No suppressive effects | No suppressive effects | 2.5 | synergistic effect | synergistically enhanced | synergistic effect | 1.7 | 16
